Test results as given in patent publication US10899744B2, “Crystalline form of compound suppressing protein kinase activity, and application thereof” (XCOVERY HOLDINGS, INC., priority 2016, dated 2021).
In brackets after ≈: the same amount, converted by molar mass. Structures can show the parent of a compound that is named as a salt.

Key:
ALK = target: T1, ALK (Homo sapiens, UniProt Q9UM73); assay: Biochemical kinase activity (Reaction Biology Corp)
T1 construct: purchased Reaction Biology Corp (contract testing)
Procedure: (§1) Biochemical kinase activity of the compound as shown in formula I was tested by Reaction Biology Corp located in Malvern, Pa., USA. The testing rules is described in Nat Biotechnol.

ALK (F1174S) = target: T2, ALK (F1174S) (Homo sapiens, UniProt Q9UM73, F1174S); assay: as above
T2 construct: purchased Reaction Biology Corp (contract testing)
Procedure: as §1

ROS1-GOPC = target: T3, ROS1-GOPC (Homo sapiens, UniProt P08922); assay: as above
T3 construct: fused on or other part: Q9HD26 (Golgi-associated PDZ and coiled-coil motif-containing protein)
Procedure: as §1

ALK (F1174L) = target: T4, ALK (F1174L) (Homo sapiens, UniProt Q9UM73, F1174L); assay: as above
T4 construct: purchased Reaction Biology Corp (contract testing)
Procedure: as §1

ALK-TFG = target: T5, ALK-TFG (Homo sapiens, UniProt Q9UM73); assay: as above
T5 construct: fused on or other part: Q92734 (Protein TFG)
Procedure: as §1

c-MET = target: T6, c-MET (Homo sapiens, UniProt P08581); assay: as above
T6 construct: purchased Reaction Biology Corp (contract testing)
Procedure: as §1

ALK (S1206R) = target: T7, ALK (S1206R) (Homo sapiens, UniProt Q9UM73, S1206R); assay: as above
T7 construct: purchased Reaction Biology Corp (contract testing)
Procedure: as §1

ALK (Fl 174L)-NPM1 = target: T8, ALK (Fl 174L)-NPM1 (Homo sapiens, UniProt Q9UM73, F1174L); assay: as above
T8 construct: NPM1 part (fusion partner); purchased Reaction Biology Corp (contract testing); the other entry of the earlier key: NPM1 (P06748, Nucleophosmin)
Procedure: as §1

EPHA1 = target: T9, EPHA1 (Homo sapiens, UniProt P21709); assay: as above
T9 construct: purchased Reaction Biology Corp (contract testing)
Procedure: as §1

TRKC = target: T10, TRKC (Homo sapiens, UniProt Q16288); assay: as above
T10 construct: purchased Reaction Biology Corp
Procedure: as §1

ROS/ROS1 = target: T11, ROS/ROS1 (Homo sapiens, UniProt P08922); assay: as above
T11 construct: purchased Reaction Biology Corp (contract testing)
Procedure: as §1

CSF1R (FMS) = target: T12, CSF1R (FMS) (Homo sapiens, UniProt P07333); assay: as above
T12 construct: purchased Reaction Biology Corp (contract testing)
Procedure: as §1

ALK(L1152R) = target: T13, ALK(L1152R) (Homo sapiens, UniProt Q9UM73, L1152R); assay: as above
T13 construct: purchased Reaction Biology Corp (contract testing)
Procedure: as §1

ALK (T1151-L1152insT) = target: T14, ALK (T1151-L1152insT) (Homo sapiens, UniProt Q9UM73, INS1151T); assay: as above
T14 construct: purchased Reaction Biology Corp (contract testing)
Procedure: as §1

ALK (G1269S) = target: T15, ALK (G1269S) (Homo sapiens, UniProt Q9UM73, G1269S); assay: as above
T15 construct: purchased Reaction Biology Corp (contract testing)
Procedure: as §1

ALK(L1196M) = target: T16, ALK(L1196M) (Homo sapiens, UniProt Q9UM73, L1196M); assay: as above
T16 construct: purchased Reaction Biology Corp (contract testing)
Procedure: as §1

EPHA2 = target: T17, EPHA2 (Homo sapiens, UniProt P29317); assay: as above
T17 construct: purchased Reaction Biology Corp (contract testing)
Procedure: as §1

EPHB1 = target: T18, EPHB1 (Homo sapiens, UniProt P54762); assay: as above
T18 construct: purchased Reaction Biology Corp (contract testing)
Procedure: as §1

ALK-NPM1 = target: T19, ALK-NPM1 (Homo sapiens, UniProt Q9UM73); assay: as above
T19 construct: NPM1 part (fusion partner); purchased Reaction Biology Corp (contract testing); the other entry of the earlier key: NPM1 (P06748, Nucleophosmin)
Procedure: as §1

ALK (T1151M) = target: T20, ALK (T1151M) (Homo sapiens, UniProt Q9UM73, T1151M); assay: as above
T20 construct: purchased Reaction Biology Corp (contract testing)
Procedure: as §1

TRKA-TFG (TRK-T3) = target: T21, TRKA-TFG (TRK-T3) (Homo sapiens, UniProt P04629); assay: as above
T21 construct: TFG (fusion partner, UniProt Q92734); purchased Reaction Biology Corp; the other entry of the earlier key: TFG (Q92734, Protein TFG)
Procedure: as §1

NEK1 = target: T22, NEK1 (Homo sapiens, UniProt Q96PY6); assay: as above
T22 construct: purchased Reaction Biology Corp (contract testing)
Procedure: as §1

ALK (G1202R) = target: T23, ALK (G1202R) (Homo sapiens, UniProt Q9UM73, G1202R); assay: as above
T23 construct: purchased Reaction Biology Corp (contract testing)
Procedure: as §1

TRKA-TPR = target: T24, TRKA-TPR (Homo sapiens, UniProt P04629); assay: as above
T24 construct: fused on or other part: P12270 (Nucleoprotein TPR)
Procedure: as §1

ALK (R1275Q) = target: T25, ALK (R1275Q) (Homo sapiens, UniProt Q9UM73, R1275Q); assay: as above
T25 construct: purchased Reaction Biology Corp (contract testing)
Procedure: as §1

ALK (G1269A) = target: T26, ALK (G1269A) (Homo sapiens, UniProt Q9UM73, G1269A); assay: as above
T26 construct: purchased Reaction Biology Corp (contract testing)
Procedure: as §1

ALK (Fl 174L)-EML4 = target: T27, ALK (Fl 174L)-EML4 (Homo sapiens, UniProt Q9UM73, F1174L); assay: as above
T27 construct: EML4 part (fusion partner); purchased Reaction Biology Corp (contract testing)
Procedure: as §1

ALK-TPM3 = target: T28, ALK-TPM3 (Homo sapiens, UniProt Q9UM73); assay: as above
T28 construct: fused on or other part: P06753 (Tropomyosin alpha-3 chain)
Procedure: as §1

TRKA = target: T29, TRKA (Homo sapiens, UniProt P04629); assay: as above
T29 construct: purchased Reaction Biology Corp (contract testing)
Procedure: as §1

TRKB = target: T30, TRKB (Homo sapiens, UniProt Q16620); assay: as above
T30 construct: purchased Reaction Biology Corp
Procedure: as §1

ALK (C1156Y) = target: T31, ALK (C1156Y) (Homo sapiens, UniProt Q9UM73, C1156Y); assay: as above
T31 construct: purchased Reaction Biology Corp (contract testing)
Procedure: as §1

TRKA-TPM3 = target: T32, TRKA-TPM3 (Homo sapiens, UniProt P04629); assay: as above
T32 construct: fused on or other part: P06753 (Tropomyosin alpha-3 chain)
Procedure: as §1

[1] = Stability of the crystalline form; assay type: physicochemical
[2] = cited from earlier work
[3] = Assay of Dynamic Vapor Sorption (DVS); assay type: physicochemical; conditions: for weight change: range of 0% to 80% RH
[4] = Solubility determination in water; assay type: physicochemical; conditions: room temperature
[5] = Pharmacokinetics in female SD rats, intragastric gavage; assay type: in vivo; conditions: PO
Procedure: 6 female SD rats were divided into two groups, three rats in each group. 50 mg/kg of Crystalline form A of the compound of formula I and free base amorphis of the compound of formula I were administered by intragastric gavage at single dose to each female SD rat respectively; the blood samples were collected through the jugular vein at the specified time, and the plasma from these samples was separated and stored in the refrigerator at −80° C.
For the above plasma from these samples, protein was precipitated using acetonitrile, the supernatant was diluted 3-fold by water, then took 5 μL of the solution for LC-MS/MS test, and data is shown in Table 9: […]

[6] = Sprague-Dawley, rat, 50 mg/kg single dose, plasma

T21 sequence (P04629 with tags, fused parts or gaps): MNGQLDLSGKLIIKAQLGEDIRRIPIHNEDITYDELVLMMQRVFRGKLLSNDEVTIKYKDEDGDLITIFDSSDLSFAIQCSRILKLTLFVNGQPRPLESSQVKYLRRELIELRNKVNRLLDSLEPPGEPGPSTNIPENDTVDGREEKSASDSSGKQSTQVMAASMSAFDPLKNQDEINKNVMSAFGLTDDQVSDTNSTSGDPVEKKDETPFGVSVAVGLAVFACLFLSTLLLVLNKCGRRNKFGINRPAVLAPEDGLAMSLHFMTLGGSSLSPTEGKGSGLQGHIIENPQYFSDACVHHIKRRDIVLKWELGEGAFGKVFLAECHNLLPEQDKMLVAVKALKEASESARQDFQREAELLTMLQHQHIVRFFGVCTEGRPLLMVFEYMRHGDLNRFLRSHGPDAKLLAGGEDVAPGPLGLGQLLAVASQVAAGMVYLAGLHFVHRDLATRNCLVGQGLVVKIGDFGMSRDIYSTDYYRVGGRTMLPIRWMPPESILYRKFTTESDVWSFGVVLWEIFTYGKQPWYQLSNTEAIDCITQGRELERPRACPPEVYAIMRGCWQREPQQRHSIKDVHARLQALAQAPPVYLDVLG
T19 sequence (Q9UM73 with tags, fused parts or gaps): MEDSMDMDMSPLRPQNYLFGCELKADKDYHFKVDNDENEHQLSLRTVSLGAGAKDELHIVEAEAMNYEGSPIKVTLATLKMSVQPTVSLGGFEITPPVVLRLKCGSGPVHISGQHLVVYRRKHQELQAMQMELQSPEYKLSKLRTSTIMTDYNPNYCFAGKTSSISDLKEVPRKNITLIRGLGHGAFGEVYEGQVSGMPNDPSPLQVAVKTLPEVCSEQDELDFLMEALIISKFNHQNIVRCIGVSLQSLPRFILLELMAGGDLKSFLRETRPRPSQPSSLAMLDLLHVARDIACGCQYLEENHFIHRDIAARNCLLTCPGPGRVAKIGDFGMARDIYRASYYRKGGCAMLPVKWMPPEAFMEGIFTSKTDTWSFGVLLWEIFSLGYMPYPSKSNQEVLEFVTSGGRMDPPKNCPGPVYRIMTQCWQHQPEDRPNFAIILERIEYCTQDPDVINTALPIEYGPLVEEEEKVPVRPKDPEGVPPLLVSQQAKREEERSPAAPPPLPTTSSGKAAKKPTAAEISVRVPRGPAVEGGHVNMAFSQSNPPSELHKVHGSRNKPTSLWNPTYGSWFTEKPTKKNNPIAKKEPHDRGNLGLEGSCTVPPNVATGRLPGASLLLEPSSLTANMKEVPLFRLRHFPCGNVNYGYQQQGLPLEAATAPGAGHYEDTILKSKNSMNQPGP
T18 sequence (P54762 18-984): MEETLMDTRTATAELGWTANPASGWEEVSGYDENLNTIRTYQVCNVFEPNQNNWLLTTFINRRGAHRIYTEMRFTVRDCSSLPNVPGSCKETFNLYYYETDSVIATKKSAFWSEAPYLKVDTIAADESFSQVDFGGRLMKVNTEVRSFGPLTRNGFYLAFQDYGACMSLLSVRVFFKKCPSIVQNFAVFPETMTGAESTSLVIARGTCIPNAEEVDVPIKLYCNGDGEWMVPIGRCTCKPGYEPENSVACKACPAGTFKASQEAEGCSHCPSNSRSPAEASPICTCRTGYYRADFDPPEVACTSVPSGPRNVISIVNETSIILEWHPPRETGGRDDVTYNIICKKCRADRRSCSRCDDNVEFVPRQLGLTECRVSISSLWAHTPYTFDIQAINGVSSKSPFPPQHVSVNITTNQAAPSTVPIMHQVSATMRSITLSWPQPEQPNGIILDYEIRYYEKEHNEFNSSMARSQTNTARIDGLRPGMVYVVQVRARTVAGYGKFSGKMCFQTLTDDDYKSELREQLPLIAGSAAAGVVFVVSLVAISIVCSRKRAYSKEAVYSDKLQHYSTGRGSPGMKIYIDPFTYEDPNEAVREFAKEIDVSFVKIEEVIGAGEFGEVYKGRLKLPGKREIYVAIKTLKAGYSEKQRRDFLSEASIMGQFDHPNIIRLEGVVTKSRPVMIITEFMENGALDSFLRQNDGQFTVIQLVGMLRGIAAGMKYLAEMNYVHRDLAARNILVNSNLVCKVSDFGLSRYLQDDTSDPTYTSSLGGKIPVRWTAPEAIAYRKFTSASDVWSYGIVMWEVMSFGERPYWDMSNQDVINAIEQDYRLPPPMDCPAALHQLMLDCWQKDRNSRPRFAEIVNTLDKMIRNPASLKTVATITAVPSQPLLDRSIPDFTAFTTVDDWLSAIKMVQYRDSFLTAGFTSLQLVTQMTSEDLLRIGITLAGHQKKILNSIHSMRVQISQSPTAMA
T22 sequence (Q96PY6 whole entry): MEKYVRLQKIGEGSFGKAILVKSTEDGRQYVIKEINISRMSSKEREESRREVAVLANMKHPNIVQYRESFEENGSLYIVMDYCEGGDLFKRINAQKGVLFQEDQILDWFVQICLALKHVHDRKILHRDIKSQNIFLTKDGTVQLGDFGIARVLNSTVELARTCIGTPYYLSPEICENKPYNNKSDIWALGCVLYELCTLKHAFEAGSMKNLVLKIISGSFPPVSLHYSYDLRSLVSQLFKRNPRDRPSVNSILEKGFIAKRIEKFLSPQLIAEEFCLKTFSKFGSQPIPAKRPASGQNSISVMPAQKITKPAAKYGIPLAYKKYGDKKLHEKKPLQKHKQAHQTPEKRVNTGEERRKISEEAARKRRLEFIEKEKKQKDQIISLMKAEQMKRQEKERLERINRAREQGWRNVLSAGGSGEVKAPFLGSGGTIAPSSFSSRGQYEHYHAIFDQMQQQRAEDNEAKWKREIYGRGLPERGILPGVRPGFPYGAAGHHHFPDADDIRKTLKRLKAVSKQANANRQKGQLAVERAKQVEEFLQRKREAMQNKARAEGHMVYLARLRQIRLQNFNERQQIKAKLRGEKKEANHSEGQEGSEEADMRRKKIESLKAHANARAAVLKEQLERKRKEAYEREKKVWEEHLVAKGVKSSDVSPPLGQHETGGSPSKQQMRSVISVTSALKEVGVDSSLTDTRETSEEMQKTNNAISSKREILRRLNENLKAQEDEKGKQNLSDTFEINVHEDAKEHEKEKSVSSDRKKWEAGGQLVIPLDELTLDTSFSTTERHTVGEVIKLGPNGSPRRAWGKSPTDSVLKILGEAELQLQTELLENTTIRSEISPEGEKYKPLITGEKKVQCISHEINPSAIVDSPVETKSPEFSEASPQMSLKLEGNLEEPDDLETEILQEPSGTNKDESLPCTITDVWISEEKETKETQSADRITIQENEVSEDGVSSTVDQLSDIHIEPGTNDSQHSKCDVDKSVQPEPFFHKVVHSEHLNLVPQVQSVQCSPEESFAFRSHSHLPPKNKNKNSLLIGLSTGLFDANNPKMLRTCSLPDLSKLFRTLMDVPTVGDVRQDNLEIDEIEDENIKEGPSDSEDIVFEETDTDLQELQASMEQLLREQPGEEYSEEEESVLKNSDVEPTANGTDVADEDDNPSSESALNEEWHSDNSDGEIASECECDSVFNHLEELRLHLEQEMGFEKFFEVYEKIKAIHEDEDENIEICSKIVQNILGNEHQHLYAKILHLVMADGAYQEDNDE
T4 sequence (Q9UM73 19-1620 F1174L): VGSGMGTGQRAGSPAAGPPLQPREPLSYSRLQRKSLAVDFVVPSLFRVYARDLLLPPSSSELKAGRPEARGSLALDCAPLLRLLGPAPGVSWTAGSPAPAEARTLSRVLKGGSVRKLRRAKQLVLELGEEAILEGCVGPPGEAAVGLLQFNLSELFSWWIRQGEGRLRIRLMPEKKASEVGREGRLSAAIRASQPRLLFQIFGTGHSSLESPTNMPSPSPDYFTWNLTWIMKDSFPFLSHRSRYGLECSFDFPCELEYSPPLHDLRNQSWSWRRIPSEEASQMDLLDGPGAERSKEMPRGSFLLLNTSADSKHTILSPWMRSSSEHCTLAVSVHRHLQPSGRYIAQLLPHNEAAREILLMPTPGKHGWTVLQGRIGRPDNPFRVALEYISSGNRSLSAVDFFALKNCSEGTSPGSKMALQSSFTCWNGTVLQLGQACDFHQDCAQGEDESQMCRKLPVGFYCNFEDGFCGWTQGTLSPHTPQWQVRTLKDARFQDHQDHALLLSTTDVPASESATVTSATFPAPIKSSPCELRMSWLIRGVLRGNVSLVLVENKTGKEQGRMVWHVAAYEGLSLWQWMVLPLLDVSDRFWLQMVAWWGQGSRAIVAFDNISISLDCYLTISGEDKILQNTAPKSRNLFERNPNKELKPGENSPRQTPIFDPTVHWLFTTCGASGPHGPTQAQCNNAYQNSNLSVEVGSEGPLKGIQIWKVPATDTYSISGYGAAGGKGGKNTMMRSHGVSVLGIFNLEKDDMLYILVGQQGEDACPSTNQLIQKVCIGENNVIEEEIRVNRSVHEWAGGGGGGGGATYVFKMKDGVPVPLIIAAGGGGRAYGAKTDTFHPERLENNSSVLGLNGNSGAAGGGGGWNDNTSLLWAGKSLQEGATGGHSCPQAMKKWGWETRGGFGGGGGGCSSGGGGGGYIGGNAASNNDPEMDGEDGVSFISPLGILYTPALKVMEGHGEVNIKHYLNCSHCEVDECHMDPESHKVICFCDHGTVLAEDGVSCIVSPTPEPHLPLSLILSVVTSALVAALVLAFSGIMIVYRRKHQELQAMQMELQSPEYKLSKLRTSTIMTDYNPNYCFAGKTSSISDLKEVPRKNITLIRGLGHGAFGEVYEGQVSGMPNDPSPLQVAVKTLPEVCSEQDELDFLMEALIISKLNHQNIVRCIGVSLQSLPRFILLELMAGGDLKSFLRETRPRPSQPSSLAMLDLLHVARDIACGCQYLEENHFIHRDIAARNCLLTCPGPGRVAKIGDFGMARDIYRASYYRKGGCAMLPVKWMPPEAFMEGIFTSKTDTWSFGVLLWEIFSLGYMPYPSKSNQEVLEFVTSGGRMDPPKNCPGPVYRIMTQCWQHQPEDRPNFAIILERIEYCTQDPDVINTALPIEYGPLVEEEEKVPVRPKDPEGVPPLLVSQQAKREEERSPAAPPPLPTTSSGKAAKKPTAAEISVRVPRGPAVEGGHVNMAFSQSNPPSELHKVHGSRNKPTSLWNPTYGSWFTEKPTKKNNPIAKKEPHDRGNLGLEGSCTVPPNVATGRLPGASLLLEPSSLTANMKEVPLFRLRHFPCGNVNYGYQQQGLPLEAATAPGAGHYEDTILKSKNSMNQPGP

C[C@@H]1CN(C(=O)c2ccc(NC(=O)c3cc(O[C@H](C)c4c(Cl)ccc(F)c4Cl)c(N)nn3)cc2)C[C@H](C)N1 [compound of Formula I, {5-[(1R)-1-(2,6-dichloro-3-fluorophenyl)ethoxy]-6-aminopyridazin-3-ly}-N-{4-[((3S,5R)-3,5-dimethylpiperazinyl)carbonyl]phenyl} carboxamide hydrochloride]
IC50 (ALK): 0.16 nM | IC50 (ALK (F1174S)): 0.17 nM | IC50 (ROS1-GOPC): 0.98 nM | IC50 (ALK (F1174L)): 0.16 nM | IC50 (ALK-TFG): 0.73 nM | IC50 (c-MET): 9.59 nM | IC50 (ALK (S1206R)): 0.17 nM | IC50 (ALK (Fl 174L)-NPM1): 0.47 nM | IC50 (EPHA1): 6.22 nM | IC50 (TRKC): 0.46 nM | IC50 (ROS/ROS1): 1.41 nM | IC50 (CSF1R (FMS)): 13.4 nM | IC50 (ALK(L1152R)): 0.58 nM | IC50 (ALK (T1151-L1152insT)): 0.26 nM | IC50 (ALK (G1269S)): 1.39 nM | IC50 (ALK(L1196M)): 0.32 nM | IC50 (EPHA2): 1.14 nM | IC50 (EPHB1): 8.59 nM | IC50 (ALK-NPM1): 0.68 nM | IC50 (ALK (T1151M)): 0.13 nM | IC50 (TRKA-TFG (TRK-T3)): 0.46 nM | IC50 (NEK1): 6.08 nM | IC50 (ALK (G1202R)): 3.83 nM | IC50 (TRKA-TPR): 1.22 nM | IC50 (ALK (R1275Q)): 1.06 nM | IC50 (ALK (G1269A)): 1.14 nM | IC50 (ALK (Fl 174L)-EML4): 0.53 nM | IC50 (ALK-TPM3): 0.21 nM | IC50 (TRKA): 8 nM | IC50 (TRKB): 3.39 nM | IC50 (ALK (C1156Y)): 0.28 nM | IC50 (TRKA-TPM3): 0.62 nM

C[C@@H]1CN(C(=O)c2ccc(NC(=O)c3cc(O[C@H](C)c4c(Cl)ccc(F)c4Cl)c(N)nn3)cc2)C[C@H](C)N1 [Crystalline form D]
change in crystalline form ([1]; dried at room temperature or dried in vacuum at room temperature): transformed into Crystalline form B

C[C@@H](Oc1cc(-c2cnn(C3CCNCC3)c2)cnc1N)c1c(Cl)ccc(F)c1Cl [crizotinib, Crizotinib]
disease control ([2]; Phase I clinical trial): 90% | objective response rate (ORR) ([2]; Phase I clinical trial): 64% | time of treatment until resistance and disease progression ([2]; most patients): 6-18 months

C[C@@H]1CN(C(=O)c2ccc(NC(=O)c3cc(O[C@H](C)c4c(Cl)ccc(F)c4Cl)c(N)nn3)cc2)C[C@H](C)N1 [Crystalline form B]
moisture absorbed ([3]; 10% RH in the adsorption stage): about 4% | weight change [3]: about 2.3% | change of weight ([3]; range of 10-80% RH): less than 2% | moisture removed ([3]; under 10% RH): about 4% | change in crystalline form ([1]; 25° C.-60% RH for 10 days): no change in crystalline form | change in crystalline form ([1]; 40° C.-75% RH for 10 days): no change in crystalline form | change in crystalline form ([1]; 80° C. for 24 hours): no change in crystalline form

C[C@@H]1CN(C(=O)c2ccc(NC(=O)c3cc(O[C@H](C)c4c(Cl)ccc(F)c4Cl)c(N)nn3)cc2)C[C@H](C)N1 [Crystalline form C]
change in crystalline form ([1]; dried in vacuum at room temperature overnight): almost completely converted to Crystalline form A

C[C@@H]1CN(C(=O)c2ccc(NC(=O)c3cc(O[C@H](C)c4c(Cl)ccc(F)c4Cl)c(N)nn3)cc2)C[C@H](C)N1 [Crystalline form E]
change in crystalline form ([1]; placed in a desiccator for 2 days): transformed into Crystalline form A

C[C@@H]1CN(C(=O)c2ccc(NC(=O)c3cc(O[C@H](C)c4c(Cl)ccc(F)c4Cl)c(N)nn3)cc2)C[C@H](C)N1 [Amorphis]
weight change [3]: about 15.7% | hygroscopicity judgment ([3]; weight change 0-80% RH): extremely hygroscopic

C[C@@H]1CN(C(=O)c2ccc(NC(=O)c3cc(O[C@H](C)c4c(Cl)ccc(F)c4Cl)c(N)nn3)cc2)C[C@H](C)N1 [Crystalline form A]
moisture removed ([3]; 0% RH drying stage): about 1.5% | moisture absorbed ([3]; 0% RH-80% RH range): about 2.3% | moisture removed ([3]; desorption stage, 30% RH): 1.5% | weight change [3]: about 2.3% | change of the weight ([3]; range of 30-80% RH): less than 2% | change in crystalline form ([1]; 25° C.-60% RH for 10 days): no change in crystalline form | change in crystalline form ([1]; 40° C.-75% RH for 10 days): no change in crystalline form | change in crystalline form ([1]; 80° C. for 24 hours): no change in crystalline form | solubility [4]: 20 to 100 mg/mL (≈ 35.6 to 178 mM) | absorption in vivo compared with the free base amorphis ([5]; 50 mg/kg): higher absorption in vivo | AUC(0-t) [5, 6]: 11600 ng·h/mL | Cmax [5, 6]: 1440 ng/mL | Tmax [5, 6]: 2.67 h
